SMILES strings stand for the structures. pIC50: −log10 of the molar value.

IC50 data for one compound are collected here from patent US5656603A (Loyola University of Chicago, priority 1995, dated 1997).

The target in experiment [1] is T1, aminopeptidase A (EC 3.4.11.7) (Rattus norvegicus, UniProt P50123).
T1 construct: aminopeptidase A (EC 3.4.11.7) (rat lung microsomes); from tissue; host or cells: rat lung microsomes
Nature of the experiment: Specificity of apstatin: aminopeptidase A. The experiment is classed as biochemical. As to conditions: rat lung microsomes; α-Glu-β-Na, pH 6.8, HPLC-1. On the procedure: (§1) Specificity of Apstatin--Apstatin was assayed for its ability to inhibit several other peptidases. […] Unless otherwise indicated, the source of each enzyme activity was a detergent extract of bovine lung prepared as described in (12-13). Activities were determined by a modification of the fluorescent assay described above (indicated by "FLUO") or by HPLC separation and quantitation of reaction products using the method described in (12) (method "HPLC-1") or the method described below (method "HPLC-2"). […]

Experiment [2] concerns the target T2, angiotensin converting enzyme (EC 3.4.15.1) (Bos taurus, UniProt P12820).
T2 construct: Unless otherwise indicated, the source of each enzyme activity was a detergent extract of bovine lung; from tissue; host or cells: detergent extract of bovine lung
T2 sequence (P12820 29-1306): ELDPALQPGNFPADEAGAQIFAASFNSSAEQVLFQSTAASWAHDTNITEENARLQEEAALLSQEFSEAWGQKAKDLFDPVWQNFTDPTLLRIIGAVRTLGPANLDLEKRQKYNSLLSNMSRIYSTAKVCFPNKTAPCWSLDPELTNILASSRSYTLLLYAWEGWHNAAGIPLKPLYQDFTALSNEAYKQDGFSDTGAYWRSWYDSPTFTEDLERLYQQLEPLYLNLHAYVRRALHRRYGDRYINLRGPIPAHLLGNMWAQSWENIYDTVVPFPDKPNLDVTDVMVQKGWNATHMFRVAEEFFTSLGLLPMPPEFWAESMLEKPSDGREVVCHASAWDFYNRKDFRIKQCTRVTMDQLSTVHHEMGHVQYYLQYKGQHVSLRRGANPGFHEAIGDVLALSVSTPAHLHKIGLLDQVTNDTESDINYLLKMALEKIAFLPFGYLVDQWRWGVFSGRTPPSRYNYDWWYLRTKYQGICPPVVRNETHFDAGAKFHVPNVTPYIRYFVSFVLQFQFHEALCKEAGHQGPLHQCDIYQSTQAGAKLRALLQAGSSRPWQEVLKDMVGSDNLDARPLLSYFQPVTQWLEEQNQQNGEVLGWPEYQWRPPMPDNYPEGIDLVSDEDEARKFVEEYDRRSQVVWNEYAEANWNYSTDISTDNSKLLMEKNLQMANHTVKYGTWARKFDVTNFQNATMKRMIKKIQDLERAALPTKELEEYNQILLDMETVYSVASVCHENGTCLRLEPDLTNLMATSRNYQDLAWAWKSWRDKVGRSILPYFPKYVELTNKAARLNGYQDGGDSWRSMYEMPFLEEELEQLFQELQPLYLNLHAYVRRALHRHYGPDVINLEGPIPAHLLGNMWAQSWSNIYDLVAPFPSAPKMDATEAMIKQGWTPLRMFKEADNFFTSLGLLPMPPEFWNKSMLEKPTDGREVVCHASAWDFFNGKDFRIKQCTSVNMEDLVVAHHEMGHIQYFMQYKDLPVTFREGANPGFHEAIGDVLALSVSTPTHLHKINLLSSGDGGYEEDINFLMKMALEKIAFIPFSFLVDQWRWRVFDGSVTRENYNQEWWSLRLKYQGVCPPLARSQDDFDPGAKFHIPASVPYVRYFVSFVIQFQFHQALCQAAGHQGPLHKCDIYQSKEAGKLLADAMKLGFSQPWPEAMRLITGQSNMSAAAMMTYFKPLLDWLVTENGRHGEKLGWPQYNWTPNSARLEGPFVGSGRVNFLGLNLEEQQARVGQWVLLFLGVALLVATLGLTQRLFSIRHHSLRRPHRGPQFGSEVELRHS
Briefly: Specificity of apstatin: angiotensin converting enzyme. The experiment is classed as biochemical. As to conditions: detergent extract of bovine lung; Hip-His-Leu, pH 6.5, HPLC-1. The procedure: as §1

T1 sequence (P50123 whole entry): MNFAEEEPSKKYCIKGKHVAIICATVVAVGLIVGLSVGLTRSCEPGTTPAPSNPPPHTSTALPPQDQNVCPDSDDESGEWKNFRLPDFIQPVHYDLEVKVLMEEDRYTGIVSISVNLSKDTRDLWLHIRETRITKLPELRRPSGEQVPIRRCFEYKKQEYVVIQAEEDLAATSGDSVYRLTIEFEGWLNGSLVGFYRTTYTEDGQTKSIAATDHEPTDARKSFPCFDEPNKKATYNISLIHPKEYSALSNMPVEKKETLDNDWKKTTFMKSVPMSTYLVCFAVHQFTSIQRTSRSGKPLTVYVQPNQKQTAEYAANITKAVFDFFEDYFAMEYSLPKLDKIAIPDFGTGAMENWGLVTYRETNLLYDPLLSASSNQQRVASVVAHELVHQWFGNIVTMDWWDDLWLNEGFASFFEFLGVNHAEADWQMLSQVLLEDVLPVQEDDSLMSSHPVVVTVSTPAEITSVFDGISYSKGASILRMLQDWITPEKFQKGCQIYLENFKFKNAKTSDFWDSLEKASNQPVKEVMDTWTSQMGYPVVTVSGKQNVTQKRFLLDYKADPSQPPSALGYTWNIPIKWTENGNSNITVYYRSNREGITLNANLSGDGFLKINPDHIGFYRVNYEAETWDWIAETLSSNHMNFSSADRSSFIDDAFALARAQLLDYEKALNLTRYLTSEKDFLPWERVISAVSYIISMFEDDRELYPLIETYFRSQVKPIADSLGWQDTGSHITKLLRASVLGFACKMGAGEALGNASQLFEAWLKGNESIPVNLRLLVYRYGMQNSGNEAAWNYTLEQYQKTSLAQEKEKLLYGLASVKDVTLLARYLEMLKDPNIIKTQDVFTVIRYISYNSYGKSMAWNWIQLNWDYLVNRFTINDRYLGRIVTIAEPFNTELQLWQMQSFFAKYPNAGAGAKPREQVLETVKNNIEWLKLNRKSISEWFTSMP

Take `C[C@H](NC(=O)[C@@H]1CCCN1C(=O)[C@@H]1CCCN1C(=O)[C@@H](O)[C@H](N)Cc1ccccc1)C(N)=O` [apstatin, N-[(2S, 3R)-3-amino-2-hydroxy-4-phenylbutanoyl]-L-prolyl-L-prolyl-Lalaninamide]: the negative logarithm of the IC50 (pIC50) in experiment [1] and in experiment [2] was less than 3.10 each time.
